target: T1, recombinant His-tag Y220C p53 DBD protein (Homo sapiens, UniProt P04637, Y220C); assay: In vitro DNA binding activity assay (TR-FRET): binding of His-tag Y220C p53 DBD to biotin-labeled consensus DNA; format: biochemical; settings: SC150 = concentration to increase DNA binding by […], His-tag Y220C p53 DBD, biotin-labeled consensus DNA
T1 construct: recombinant His-tag Y220C p53 DBD protein (amino acids #˜94-312)

**Q.** `CC(O)Cn1ccc(C(=O)NCc2nc(-c3cc4c(N[C@@H]5CCN(C)C[C@@H]5F)cccc4n3CC(F)(F)F)no2)c1` (stereo partly drawn) [Compound 244B, N-{[3-(4-{[(3S,4R)-3-fluoro-1-methylpiperidin-4-yl]amino}-1-(2,2,2-trifluoroethyl)-1H-indol-2-yl)-1,2,4-oxadiazol-5-yl]methyl}-1-(2-hydroxypropyl)-1H-pyrrole-3-carboxamide] was tested. Which “Y220C SC150 (μM)” value did it give?
**A.** Its value is “* (* = 0 μM ≤ SC150 < 0.1 μM)”.

**Q.** With `CN1CC[C@@H](Nc2cccc3c2cc(-c2noc(CNC(=O)[C@@H]4C[C@H]4CN4CCCC4)n2)n3CC(F)(F)F)[C@@H](F)C1` [Compound 265B, (1R,2R)-N-{[3-(4-{[(3S,4R)-3-fluoro-1-methylpiperidin-4-yl]amino}-1-(2,2,2-trifluoroethyl)-1H-indol-2-yl)-1,2,4-oxadiazol-5-yl]methyl}-2-[(pyrrolidin-1-yl)methyl]cyclopropane-1-carboxamide] as the molecule, how does the “Y220C SC150 (μM)” value read?
**A.** Its value is “* (* = 0 μM ≤ SC150 < 0.1 μM)”.

**Q.** Which “Y220C SC150 (μM)” value does the source give for `CN1CC[C@@H](Nc2cccc3c2cc(-c2noc(CNC(=O)c4cnn(C5CCC(F)C5)c4)n2)n3CC(F)(F)F)[C@@H](F)C1` (stereo partly drawn) [Compound 339B, N-{[3-(4-{[(3S,4R)-3-fluoro-1-methylpiperidin-4-yl]amino}-1-(2,2,2-trifluoroethyl)-1H-indol-2-yl)-1,2,4-oxadiazol-5-yl]methyl}-1-(3-fluorocyclopentyl)-1H-pyrazole-4-carboxamide] here?
**A.** The value was “* (* = 0 μM ≤ SC150 < 0.1 μM)”.

**Q.** For `CN1CC[C@@H](Nc2cccc3c2cc(-c2ncc(CNC(=O)c4ccccc4)s2)n3CC(F)(F)F)[C@@H](F)C1` (racemic) [Compound 91B, (+/−)-N-{[2-(4-{[(3R,4S)-3-fluoro-1-methylpiperidin-4-yl]amino}-1-(2,2,2-trifluoroethyl)-1H-indol-2-yl)-1,3-thiazol-5-yl]methyl}benzamide], which “Y220C SC150 (μM)” value is on record?
**A.** Its value is “* (* = 0 μM ≤ SC150 < 0.1 μM)”.

**Q.** `CN1CCC(Nc2cccc3c2cc(-c2nc(CNC(=O)c4ccn(C)n4)no2)n3CC(F)(F)F)CC1` [Compound 141B, 1-methyl-N-[(5-{4-[(1-methylpiperidin-4-yl)amino]-1-(2,2,2-trifluoroethyl)-1H-indol-2-yl}-1,2,4-oxadiazol-3-yl)methyl]-1H-pyrazole-3-carboxamide] was tested. Which “Y220C SC150 (μM)” value did it give?
**A.** The value was “** (** = 0.1 μM ≤ SC150 < 0.5 μM)”.

**Q.** For `CN1CCC(Nc2cccc3c2cc(-c2ncc(CNC(=O)C4CC4)s2)n3CC(F)(F)F)CC1` [Compound 94B, N-[(2-{4-[(1-methylpiperidin-4-yl)amino]-1-(2,2,2-trifluoroethyl)-1H-indol-2-yl}-1,3-thiazol-5-yl)methyl]cyclopropanecarboxamide], which “Y220C SC150 (μM)” value is on record?
**A.** The value was “* (* = 0 μM ≤ SC150 < 0.1 μM)”.

**Q.** How did the “Y220C SC150 (μM)” value turn out when `CN1CC[C@@H](Nc2cccc3c2cc(-c2noc(CNC(=O)c4ccn(C(C)(C)C)c4)n2)n3CC(F)(F)F)[C@@H](F)C1` [Compound 194B, 1-tert-butyl-N-{[3-(4-{[(3S,4R)-3-fluoro-1-methylpiperidin-4-yl]amino}-1-(2,2,2-trifluoroethyl)-1H-indol-2-yl)-1,2,4-oxadiazol-5-yl]methyl}-1H-pyrrole-3-carboxamide] was run?
**A.** Its value is “* (* = 0 μM ≤ SC150 < 0.1 μM)”.

**Q.** For `CN1CC[C@@H](Nc2cccc3c2cc(-c2noc(CNC(=O)c4ccc(N5CCCC5)cc4)n2)n3CC(F)(F)F)[C@@H](F)C1` [Compound 243B, N-{[3-(4-{[(3S,4R)-3-fluoro-1-methylpiperidin-4-yl]amino}-1-(2,2,2-trifluoroethyl)-1H-indol-2-yl)-1,2,4-oxadiazol-5-yl]methyl}-4-(pyrrolidin-1-yl)benzamide], which “Y220C SC150 (μM)” value is on record?
**A.** Its value is “* (* = 0 μM ≤ SC150 < 0.1 μM)”.

**Q.** With `CN1CC[C@@H](Nc2cccc3c2cc(-c2nnc(CNC(=O)c4ccn(C5(C)CCOCC5)c4)s2)n3CC(F)(F)F)[C@@H](F)C1` [Compound 287B, N-{[5-(4-{[(3S,4R)-3-fluoro-1-methylpiperidin-4-yl]amino}-1-(2,2,2-trifluoroethyl)-1H-indol-2-yl)-1,3,4-thiadiazol-2-yl]methyl}-1-(4-methyloxan-4-yl)-1H-pyrrole-3-carboxamide] as the molecule, how does the “Y220C SC150 (μM)” value read?
**A.** Its value is “* (* = 0 μM ≤ SC150 < 0.1 μM)”.

— patent US11807644B2 (PMV Pharmaceuticals, Inc., priority 2020, dated 2023)
